Results: BindingDB's records for PubMed 32092586 (Zhengzhou University, 2020)

Biological target: Ubiquitin carboxyl-terminal hydrolase 7 (Homo sapiens, UniProt Q93009)
Test: Inhibition of human USP7 using Ub-AMC as substrate

Sequence of Ubiquitin carboxyl-terminal hydrolase 7 (Q93009 whole entry): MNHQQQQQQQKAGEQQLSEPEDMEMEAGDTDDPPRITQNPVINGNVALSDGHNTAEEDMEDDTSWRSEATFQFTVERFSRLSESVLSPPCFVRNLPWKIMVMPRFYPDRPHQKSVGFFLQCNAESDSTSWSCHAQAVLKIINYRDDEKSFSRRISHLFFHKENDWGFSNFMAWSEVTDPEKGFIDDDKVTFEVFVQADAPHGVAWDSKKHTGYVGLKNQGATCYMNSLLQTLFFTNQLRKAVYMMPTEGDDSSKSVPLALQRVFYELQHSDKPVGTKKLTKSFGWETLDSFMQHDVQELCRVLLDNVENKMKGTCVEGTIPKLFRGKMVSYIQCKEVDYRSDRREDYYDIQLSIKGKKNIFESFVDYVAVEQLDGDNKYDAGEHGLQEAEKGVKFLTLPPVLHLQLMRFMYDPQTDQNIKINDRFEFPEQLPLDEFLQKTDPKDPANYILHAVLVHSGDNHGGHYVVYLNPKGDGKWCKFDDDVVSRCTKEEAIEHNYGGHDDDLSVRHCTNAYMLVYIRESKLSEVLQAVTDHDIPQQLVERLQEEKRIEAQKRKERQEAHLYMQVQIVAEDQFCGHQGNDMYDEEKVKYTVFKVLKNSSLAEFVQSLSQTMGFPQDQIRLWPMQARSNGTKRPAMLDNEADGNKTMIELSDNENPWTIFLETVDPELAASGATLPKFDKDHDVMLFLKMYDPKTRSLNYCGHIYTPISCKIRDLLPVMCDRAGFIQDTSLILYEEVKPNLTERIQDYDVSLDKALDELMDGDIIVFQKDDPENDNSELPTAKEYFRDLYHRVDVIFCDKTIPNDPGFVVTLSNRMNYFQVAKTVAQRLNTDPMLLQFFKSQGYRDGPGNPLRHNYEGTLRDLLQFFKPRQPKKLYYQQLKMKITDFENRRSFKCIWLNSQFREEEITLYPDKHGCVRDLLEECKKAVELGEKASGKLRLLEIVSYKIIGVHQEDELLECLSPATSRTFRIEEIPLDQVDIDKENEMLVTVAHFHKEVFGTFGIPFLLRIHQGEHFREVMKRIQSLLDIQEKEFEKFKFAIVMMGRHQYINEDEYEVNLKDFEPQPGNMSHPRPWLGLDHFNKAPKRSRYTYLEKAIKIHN

C[C@H](CC(=O)N1CCC(O)(Cn2cnc3cc(NC(=O)CCN4CCN(C)CC4)ccc3c2=O)CC1)c1ccccc1
IC50: 90 nM
